# Molecular target: T1, PDGFRB(DKIN) (PDGFR-β) (Homo sapiens, UniProt P09619)
# T1 construct: PDGFRB(DKIN)
# Experiment: Phage-display competitive binding assay, PDGFRB(DKIN)
# Conditions: T7 phage displaying human PDGFR-β, DKIN construct; read-out: Binding Assay: PDGFRB(DKIN)
# Description: The term “ND” represents non-determined values.
# Briefly, T7 phage displaying human PDGFR-β were incubated with an affinity matrix coated with known PDGFR-β inhibitor in the presence of various concentrations of the soluble competitor molecules.
row,Structure (SMILES),Kd [nM]
1,COc1cccc(-c2ccc(C(=O)Nc3ccc(NC(=O)Nc4cc(C(C)(C)C)on4)cc3)o2)c1 [Compound N105],100 to 1000
2,CC(C)(C)c1cc(NC(=O)Nc2ccc(NC(=O)Cc3csc4ccccc34)cc2)no1 [Compound N107],1000 to 10000
3,CC(C)(C)c1cc(NC(=O)Nc2ccc(NC(=O)c3cnc4ccccc4c3)cc2)no1 [Compound N108],< 100
4,CC(C)(C)c1cc(NC(=O)Nc2ccc(NC(=O)c3cccc4nsnc34)cc2)no1 [Compound N109],< 100
5,CC(C)(C)c1cc(NC(=O)Nc2ccc(NC(=O)c3ccc4cnccc4n3)cc2)no1 [Compound N110],< 100
6,CC(C)(C)c1cc(NC(=O)Nc2ccc(NC(=O)c3cccc4c3OCCO4)cc2)no1 [Compound N111],100 to 1000
7,CC(C)(C)c1cc(NC(=O)Nc2ccc(NC(=O)c3cc(Cl)cn(Cc4ccccc4)c3=O)cc2)no1 [Compound N112],100 to 1000
8,COC(=O)c1ccc(C(=O)Nc2ccc(NC(=O)Nc3cc(C(C)(C)C)on3)cc2)nc1 [Compound N113],< 100
9,CSc1ncc(Br)c(C(=O)Nc2ccc(NC(=O)Nc3cc(C(C)(C)C)on3)cc2)n1 [Compound N114],< 100
10,CC(C)(C)c1cc(NC(=O)Nc2ccc(NC(=O)c3cccc4cccnc34)cc2)no1 [Compound N115],< 100
11,Cc1nn(C)c(Cl)c1C(=O)Nc1ccc(NC(=O)Nc2cc(C(C)(C)C)on2)cc1 [Compound N116],< 100
12,CC(C)(C)c1cc(NC(=O)Nc2ccc(NC(=O)c3nccc4ccccc34)cc2)no1 [Compound N117],< 100
13,COc1ccc(-c2cc(C(=O)Nc3ccc(NC(=O)Nc4cc(C(C)(C)C)on4)cc3)c(C)o2)cc1 [Compound N118],1000 to 10000
14,Cn1cc(C(=O)Nc2ccc(NC(=O)Nc3cc(C(C)(C)C)on3)cc2)c2ccccc21 [Compound N119],< 100
15,Cc1ccc(-c2cc(C(=O)Nc3ccc(NC(=O)Nc4cc(C(C)(C)C)on4)cc3)c(C)o2)cc1 [Compound N120],1000 to 10000
16,Cc1cccc(C(=O)Nc2ccc(NC(=O)Nc3cc(C(C)(C)C)on3)cc2)n1 [Compound N121],< 100
17,CC(C)(C)c1cc(NC(=O)Nc2ccc(NC(=O)c3ccc4sccc4c3)cc2)no1 [Compound N122],< 100
18,CC(C)(C)c1cc(NC(=O)Nc2ccc(NC(=O)c3cnc(Cl)c(Cl)c3)cc2)no1 [Compound N123],1000 to 10000
19,CC(C)(C)c1cc(NC(=O)Nc2ccc(NC(=O)c3coc(-c4ccc(Cl)cc4)n3)cc2)no1 [Compound N124],100 to 1000
20,CC(C)(C)c1cc(NC(=O)Nc2ccc(NC(=O)c3ccc(Cl)nc3)cc2)no1 [Compound N125],100 to 1000
21,CC(C)(C)c1cc(NC(=O)Nc2ccc(NC(=O)c3cc4cc(Br)ccc4s3)cc2)no1 [Compound N126],100 to 1000
22,Cc1ccc2[nH]c(C(=O)Nc3ccc(NC(=O)Nc4cc(C(C)(C)C)on4)cc3)cc2c1 [Compound N127],< 100
23,COc1cc(OC)nc(C2CCCCC2C(=O)Nc2ccc(NC(=O)Nc3cc(C(C)(C)C)on3)cc2)n1 (centres unmarked) [Compound N129],100 to 1000
24,CC(C)(C)c1cc(NC(=O)Nc2ccc(NC(=O)c3ccc(Cl)nc3Cl)cc2)no1 [Compound N130],100 to 1000
25,Cc1ccc2sc(C(=O)Nc3ccc(NC(=O)Nc4cc(C(C)(C)C)on4)cc3)cc2c1 [Compound N133],< 100
26,CC(C)(C)c1cc(NC(=O)Nc2ccc(NC(=O)c3cnc4cc(C(F)(F)F)ccc4c3O)cc2)no1 [Compound N146],1000 to 10000
27,CC(C)(C)c1cc(NC(=O)Nc2ccc(NC(=O)c3cnnc4ccccc34)cc2)no1 [Compound N147],< 100

row,Structure (SMILES),Kd [nM]
1,CC(C)(C)c1cc(NC(=O)Nc2ccc(NC(=O)c3c4ccccc4nc4ccccc34)cc2)no1 [Compound N148],1000 to 10000
2,CC(C)(C)c1cc(NC(=O)Nc2ccc(NC(=O)c3cnc4ccccc4n3)cc2)no1 [Compound N149],1000 to 10000
3,CC(C)(C)c1cc(NC(=O)Nc2ccc(NC(=O)c3ccc4ncccc4c3)cc2)no1 [Compound N151],< 100
4,CC(C)(C)c1cc(NC(=O)Nc2ccc(C(=O)Nc3ccc(F)cc3F)cc2)no1 [Compound N153],100 to 1000
5,CC(C)(C)c1cc(NC(=O)Nc2ccc(C(=O)Nc3nccnc3N)cc2)no1 [Compound N157],< 100
6,CN(C)c1ccc(C(=O)Nc2ccc(NC(=O)Nc3cc(C(C)(C)C)on3)cc2)cn1 [Compound N159],< 100
7,Cc1cnc(C(=O)Nc2ccc(NC(=O)Nc3cc(C(C)(C)C)on3)cc2)c(C(=O)O)n1 [Compound N160],< 100
8,CC(C)(C)c1cc(NC(=O)Nc2ccc(NC(=O)c3cc4ccccc4[nH]3)cc2)no1 [Compound N161],< 100
9,COc1cc(C(=O)Nc2ccc(NC(=O)Nc3cc(C(C)(C)C)on3)cc2)nc(OC)n1 [Compound N162],< 100
10,CCOC(=O)c1cccc(C(=O)Nc2ccc(NC(=O)Nc3cc(C(C)(C)C)on3)cc2)n1 [Compound N164],< 100
11,CC(C)(C)c1cc(NC(=O)Nc2ccc(NC(=O)c3cccnc3C(=O)O)cc2)no1 [Compound N165],100 to 1000
12,CC(C)(C)c1cc(NC(=O)Nc2ccc(NC(=O)c3ccc(Oc4ccnc(C(=O)O)c4)cc3)cc2)no1 [Compound N166],< 100
13,CC(C)(C)c1cc(NC(=O)Nc2ccc(NC(=O)c3ccncc3)cc2)no1 [Compound N167],< 100
14,Cc1cc(NC(=O)c2cn3nc(Cl)ccc3n2)ccc1NC(=O)Nc1cc(C(C)(C)C)on1 [Compound N169],100 to 1000
15,Cc1cc(NC(=O)[C@](C)(O)CSc2ccc(F)cc2)ccc1NC(=O)Nc1cc(C(C)(C)C)on1 [Compound N170],100 to 1000
16,COc1cc(NC(=O)c2cn3nc(Cl)ccc3n2)ccc1NC(=O)Nc1cc(C(C)(C)C)on1 [Compound N171],100 to 1000
17,COc1cc(NC(=O)CCC(=O)N2CCNC(=O)CC2)ccc1NC(=O)Nc1cc(C(C)(C)C)on1 [Compound N172],1000 to 10000
18,Cc1nc(-c2ccc(C(=O)Nc3ccc(NC(=O)Nc4cc(C(C)(C)C)on4)cc3)s2)cs1 [Compound N173],< 100
19,CC(C)(C)c1cc(NC(=O)Nc2ccc(NC(=O)c3cc(Cl)nnc3Cl)cc2)no1 [Compound N174],100 to 1000
20,CC(C)(C)c1cc(NC(=O)Nc2ccc(NC(=O)c3cc(O)c4cccc(O)c4n3)cc2)no1 [Compound N176],1000 to 10000
21,COc1ccc(C(=O)c2c[nH]c(C(=O)Nc3ccc(NC(=O)Nc4cc(C(C)(C)C)on4)cc3)c2)cc1 [Compound N177],1000 to 10000
22,Cc1ccc(-c2nc(C(=O)Nc3ccc(NC(=O)Nc4cc(C(C)(C)C)on4)cc3)cs2)cc1 [Compound N178],< 100
23,CC(C)(C)c1cc(NC(=O)Nc2ccc(NC(=O)c3nnsc3Sc3ccc(C(F)(F)F)cc3)cc2)no1 [Compound N179],100 to 1000
24,CC(C)(C)c1cc(NC(=O)Nc2ccc(NC(=O)c3csc(Cc4cccc(C(F)(F)F)c4)n3)cc2)no1 [Compound N180],100 to 1000
25,Cc1nc(-c2ccccc2)sc1C(=O)Nc1ccc(NC(=O)Nc2cc(C(C)(C)C)on2)cc1 [Compound N181],100 to 1000
26,CC(C)c1nnsc1C(=O)Nc1ccc(NC(=O)Nc2cc(C(C)(C)C)on2)cc1 [Compound N182],1000 to 10000
27,Cc1nc(-c2ccc(Cl)cc2)sc1C(=O)Nc1ccc(NC(=O)Nc2cc(C(C)(C)C)on2)cc1 [Compound N184],100 to 1000

# Next, values leading:
row,Kd [nM],Structure (SMILES)
1,100 to 1000,"COc1cc2nc(Cl)nc(Nc3ccc(NC(=O)Nc4cc(C(C)(C)C)on4)cc3)c2cc1OC [Compound O1, 1-(4-(2-chloro-6,7-dimethoxyquinazolin-4-ylamino)phenyl)-3-(5-tert-butylisoxazol-3-yl)urea]"
2,< 100,Cc1cnc(C(=O)Nc2ccc(NC(=O)Nc3cc(C(C)(C)C)on3)cc2)cn1 [Compound O2]
3,< 100,CC(C)(C)c1cc(NC(=O)Nc2ccc(Nc3ncnc4[nH]cnc34)cc2)no1 [Compound O3]
4,< 100,CC(C)(C)c1cc(NC(=O)Nc2ccc(Nc3nc(Cl)nc4[nH]cnc34)cc2)no1 [Compound O4]
5,< 100,COc1cc2ncnc(Nc3ccc(NC(=O)Nc4cc(C(C)(C)C)on4)cc3)c2cc1OC [Compound O5]
6,< 100,CC(C)(C)c1cc(NC(=O)Nc2ccc(Nc3nc(N)nc4[nH]cnc34)cc2)no1 [Compound O6]
7,100 to 1000,CC(C)(C)c1cc(NC(=O)Nc2ccc(Nc3ccnc(N)n3)cc2)no1 [Compound O7]
8,100 to 1000,COC(=O)c1cccc(Sc2ncc(NC(=O)Nc3cc(C(C)(C)C)on3)s2)c1 [Compound O8]
9,100 to 1000,Cc1ccc(CNc2ccc(NC(=O)Nc3cc(C(C)(C)C)on3)cc2)cc1 [Compound O9]
10,100 to 1000,Cc1nc(N)cc(Nc2ccc(NC(=O)Nc3cc(C(C)(C)C)on3)cc2)n1 [Compound O10]
11,1000 to 10000,COc1ccc(-c2noc(-c3ccc(NC(=O)Nc4cc(C(C)(C)C)on4)cc3)n2)c2ccccc12 [Compound P3]
12,< 100,Cc1ccccc1-c1noc(-c2ccc(NC(=O)Nc3cc(C(C)(C)C)on3)cc2)n1 [Compound P4]
13,100 to 1000,CC(C)(C)c1cc(NC(=O)Nc2ccc(-c3nc(-c4cccc5ccccc45)no3)cc2)no1 [Compound P5]
14,100 to 1000,CC(C)(C)c1cc(NC(=O)Nc2ccc(-c3nc(-c4ccc(Cl)cc4)no3)cc2)no1 [Compound P7]
15,> 10000,CC(C)(C)c1cc(NC(=O)Nc2ccc(-c3nc(-c4ccc(C(F)(F)F)cc4)no3)cc2)no1 [Compound P8]
16,< 100,Cc1noc(-c2ccc(NC(=O)Nc3cc(C(C)(C)C)on3)cc2)n1 [Compound P9]
17,1000 to 10000,CC(C)(C)c1cc(NC(=O)Nc2ccc(NS(=O)(=O)c3ccccc3)cc2)no1 [Compound V1]
18,1000 to 10000,Cc1ccc(S(=O)(=O)Nc2ccc(NC(=O)Nc3cc(C(C)(C)C)on3)cc2)cc1 [Compound V2]
19,> 10000,CC(C)(C)c1cc(NC(=O)Nc2ccc(S(=O)(=O)Nc3ncccn3)cc2)no1 [Compound V3]

# Same assay, conditions: read-out: Binding Assay: PDGFRB(DKIN); T7 phage displaying human PDGFR-β, DKIN construct
row,Kd [nM],Structure (SMILES)
1,< 100,CC(C)(C)c1cc(NC(=O)Nc2ccc(NC(=O)c3cc4ccccc4cn3)cc2)no1 [Compound N106]

# Source: US20050197371A1, “Urea derivatives as PDGFR modulators” (Ambit Biosciences Corporation, priority 2003, published 2005)
